{"source": "patent US20100015111A1", "about": "“Methods And Kits For The Treatment Inhibition, And Maintenance Of Gastrointestinal Disorders” (priority 2008, published 2010)", "test_system": "dextran sulfate salt (DSS) induced chronic ulcerative colitis in male Swiss-Webster mice", "assay": "Olsalazine on dextran sulfate salt (DSS) induced chronic ulcerative colitis in mice", "type": "in vivo", "conditions": "for survival to necropsy day: 3% DSS days 0-14, 15% in disease controls; for mean body weight loss at study end: 3% DSS, disease control lost 3.90 g; for colon content score (mean, scale 0-3) / mean colon length / inhibition of decreased colon length: day 14; for colon content score (mean, scale 0-3): disease control mean 2.67; for mean colon length: normal 10.60, disease control 6.33; for inhibition of decreased colon length: vs disease control", "method": "A study was conducted to determine the effect of Olsalazine on dextran sulfate salt (DSS) induced chronic ulcerative colitis in male Swiss-Webster mice. Groups of 20 male Swiss-Webster mice were allowed ad libitum access to Olsalazine qd beginning on day −3 and then continued daily (qd) or every two days (q2d) starting on day 0 and continuing through day 14. Dipentum®, Olsalazine Sodium is a sodium salt of salicylate, disodium 3,3′-azobis(6-hydroxybenzoate) and when exposed to colonic bacteria converts to mesalamine. In this animal model, male Swiss-Webster mice are exposed to DSS (3% days 0-14) to induce inflammation and gland loss with erosion in the colon.\nDextran sulfate, molecular weight 40-50,000 (sodium salt, Spectrum Chemicals, New Brunswick, N.J., Lot#RA1107) was stored at room temperature until added to appropriate volumes of tap water to prepare sufficient 3% DSS solutions. Prepared solutions were stored at 4° C. and added to water bottles daily. Every 3rd day, water in all bottles was discarded and replaced with fresh DSS preparations or tap water (normal controls). Dipentum® (Olsalazine Sodium) was received from the sponsor in hard gelatin capsule form. Capsules were received and each capsule contained 250 mg. On study day −3, 51 capsules were opened (˜12.75 grams) and the contents of each were consolidated into a labeled vial. Appropriate amounts of the beige-orange compound was then added to 250 ml water bottles so that each bottle would contain ˜0.83 mg/ml Olsalazine suspension in the water.\n• Male Swiss-Webster mice weighing approximately 22-29 grams on day (−)3 were obtained from Harlan, Inc (Indianapolis, Ind.). Animals were identified by color-coded dots at the base of the tail delineating group and animal number. After randomization, all cages were labeled with protocol number, group and animal numbers with appropriate color-coding.\nAnimals (5/group/normal control, 20/group for diseased treated), housed 5/cage, were given 3.0% DSS in their water from test days 0-14. Olsalazine treatment was initiated on day −3 and continued daily through day 14, or on days −3, −2, −1, 0, 2, 4, 6, 8, 10, 12, and 14 for the q2d group. Animals were terminated on day 14. • Experimental groups were as follows:\nAnimals were weighed on study days −3 to 14. On day 14 mice were weighed, euthanized, and the entire colon was removed and the length determined. The colons were scored for gross changes using the following criteria:\n0=normal, no blood observed\n2=semi-solid to fluid stool\n3=semi-solid with definite evidence of blood, bloody fluid or no content\nOnly animals that survived to study termination were included in the analysis of terminal colon lengths and scores.\nFor each surviving animal, the entire colon (proximal and distal) was trimmed into 8 equally spaced pieces for processing and embedding. Sections were stained with hemotoxylin and eosin (H&E). For each colon section, submucosal edema was quantified by measuring the distance (mm) from the muscularis mucosa to the internal border of the outer muscle layer in representative areas of edema. The extent of inflammation (foamy macrophages, lymphocytes and polymorphonuclear cell infiltrate) was assigned severity scores according to the following ranking:\nThe parameters reflecting epithelial cell loss/damage were scored individually using a percent area involved scoring method:\nParameters that were scored using the above percent involvement scale include: • 1) Colon glandular loss—includes crypt epithelial as well as remaining gland epithelial loss. • 2) Colon erosion—reflects loss of surface epithelium and generally is associated with mucosal hemorrhage (seen clinically and at necropsy).\nMucosal epithelial hyperplasia (basophilia, mitotic figures, multi-layered on basement membranes, absence of goblet cells) was scored 0-5 based on the following criteria […]", "key": {"[1]": {"conditions": "Olsalazine ad libitum, q2d, compared to disease controls"}, "[2]": {"conditions": "Olsalazine ad libitum, q2d, histopathology day 14, non significant"}, "[3]": {"conditions": "Olsalazine ad libitum, qd, histopathology day 14"}, "[4]": {"conditions": "Olsalazine ad libitum, qd, histopathology day 14, non significant"}, "[5]": {"conditions": "Olsalazine ad libitum, qd, histopathology day 14, significant"}}}
{"compound": "O=C([O-])c1cc(N=Nc2ccc(O)c(C(=O)[O-])c2)ccc1O.[Na+].[Na+]", "note": "[Olsalazine, disodium 3,3′-azobis(6-hydroxybenzoate)]", "values": [{"measurement": "survival to necropsy day", "setting": "Olsalazine ad libitum in water (~0.83 mg/ml), every day (qd), day -3 to 14", "value": 75, "unit": "%"}, {"measurement": "survival to necropsy day", "setting": "Olsalazine ad libitum, every other day (q2d): days -3,-2,-1,0,2,...14", "value": 50, "unit": "%"}, {"measurement": "mean body weight loss at study end", "setting": "Olsalazine ad libitum, q2d", "value": 3.10, "unit": "g"}, {"measurement": "inhibition of mean hyperplasia score", "setting": "[1]", "value": 11, "unit": "%"}, {"measurement": "inhibition of mucosal thickness", "setting": "[1]", "value": 17, "unit": "%"}, {"measurement": "colon content score (mean, scale 0-3)", "setting": "Olsalazine ad libitum, q2d", "value": 2.70}, {"measurement": "mean colon length", "setting": "Olsalazine ad libitum, q2d", "value": 7.1, "unit": "cm"}, {"measurement": "inhibition of decreased colon length", "setting": "Olsalazine ad libitum, q2d", "value": 18, "unit": "%"}, {"measurement": "inhibition of colon gland loss", "setting": "Olsalazine ad libitum, q2d, histopathology day 14", "value": 32, "unit": "%"}, {"measurement": "inhibition of colon edema", "setting": "[2]", "value": 21, "unit": "%"}, {"measurement": "inhibition of colon erosion", "setting": "[2]", "value": 27, "unit": "%"}, {"measurement": "inhibition of colon inflammation", "setting": "[2]", "value": 27, "unit": "%"}, {"measurement": "inhibition of sum colon histopathologic score", "setting": "[2]", "value": 29, "unit": "%"}, {"measurement": "mean body weight loss at study end", "setting": "Olsalazine ad libitum, qd", "value": 4.78, "unit": "g"}, {"measurement": "inhibition of mean hyperplasia score", "setting": "Olsalazine ad libitum, qd, compared to disease control", "value": 16, "unit": "%"}, {"measurement": "colon content score (mean, scale 0-3)", "setting": "Olsalazine ad libitum, qd", "value": 2.33}, {"measurement": "mean colon length", "setting": "Olsalazine ad libitum, qd", "value": 7.33, "unit": "cm"}, {"measurement": "inhibition of decreased colon length", "setting": "Olsalazine ad libitum, qd", "value": 23, "unit": "%"}, {"measurement": "inhibition of colon erosion", "setting": "[3]", "value": 32, "unit": "%"}, {"measurement": "inhibition of increase of mucosal thickness", "setting": "[3]", "value": 32, "unit": "%"}, {"measurement": "inhibition of colon edema", "setting": "[4]", "value": 22, "unit": "%"}, {"measurement": "inhibition of sum colon histopathologic score", "setting": "[4]", "value": 35, "unit": "%"}, {"measurement": "inhibition of colon gland loss", "setting": "[5]", "value": 32, "unit": "%"}, {"measurement": "inhibition of colon inflammation", "setting": "[5]", "value": 33, "unit": "%"}]}
